Measurements published in patent US20130096160A1, “ARYLTHIAZOLYL PIPERIDINES AND RELATED COMPOUNDS AS MODULATORS OF SURVIVAL MOTOR NEURON (SMN) PROTEIN PRODUCTION” (Secretary, Department of Health and Human Services, priority 2010, published 2013).

Key:
human SMN protein = experiment: Western blot of SMN protein in SMA patient fibroblasts (3813); type: cell-based; settings: 3813 fibroblasts, quantitative western blotting, FIG. 4; for SMN protein level versus dose (in words): different doses
Experimental: Type I spinal muscular atrophy (SMA)-affected human primary fibroblasts (#GM03813) and carrier parents (#GM03814, parent and #GM03815, […]) are obtained live with low passage number from Coriell Cell Repositories. […] For detection of SMN protein in patient fibroblasts, 8,000 cells per cm^2 are plated 24 hours prior to drug addition. Fresh media and compound are added every 24 hours. After 72 hours, cells are harvested, washed with cold PBS, and lysed. Samples are subjected to polyacrylamide gel electrophoresis (PAGE). It is determined that 10 μg total protein per lane is within the linear range for immunoblot detection of SMN and alpha-tubulin. Western blots of the gel are probed for SMN with the 4B7 mouse monoclonal antibody (from the lab of Christian Lorson). A goat anti-mouse antibody (Santa Cruz Biotechnology/#sc-2005) conjugated to horseradish peroxidase (HRP) is used as the secondary antibody. Quantification of protein is performed by detecting chemiluminescence with a Fujifilm LAS-4000 Multifunctional Imaging System. […] We incubated a fibroblast cell line from a type I SMA patient (3813 cell line) with different doses of analogues and assessed the SMN protein level by quantitative western blotting (FIG. 4). We observed that analogue 8 m at concentration of 37 nanomolar increased the SMN protein level by 2-3 fold. […] This could be due with the intrinsic mechanism of action or to other causes, such us concentration dependent compound solubility.

SMN2-luciferase reporter = SMN2-luciferase reporter qHTS assay; type: cell-based, human; set-up: key to Curve Class: A curve class of 1.1 is a full agonist/antagonist; a curve class of 4 indicates the compound is inactive; settings: for Curve Class: agonist/antagonist character of the concentration-response, lower values = more significant concentration-response; for Increased SMN2 activity: percent increase (or decrease) in SMN2 levels compared to control in which no test compound is added
Summary of the method: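 SMN2 exon-7 splicing firefly-luciferase reporter cell line, ~2000 cells/well in phenol-red-free DMEM with 10% serum, allowed to adhere 10–12 h, then exposed to compounds for 2 days at 37 C, 5% CO2. Seven-point five-fold dilution series (e.g. 50 μM to 3.2 nM), OneGlo luminescence read, curves fitted to Hill equation.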

[1] = mouse, microsomes, 1 h, 1 μM, pH 7.4
Experimental: The test agent is incubated at 1 μM in duplicate with mouse microsomes at 37° C. for 60 min. The reaction contains 0.3 mg/mL microsomal protein in 100 mM potassium phosphate, 2 mM NADPH, 3 mM MgCl2, pH 7.4. A control is run for each test agent omitting NADPH to detect NADPH-free degradation. At indicated times, an aliquot is removed from each experimental and control reaction and mixed with an equal volume of ice-cold Stop Solution (0.3% acetic acid in acetonitrile containing haloperidol, diclofenac, or other internal standard). Stopped reactions are incubated at least ten minutes at −20° C., and an additional volume of water is added.
The samples are centrifuged to remove precipitated protein, and the supernatants are analyzed by LC/MS/MS, as described above, to quantitate the remaining parent. Data are reported as % remaining by dividing by the time zero concentration value.

in vitro = in vitro ADME; settings: human, Caco-2
Experimental: CaCo-2 cells grown in tissue culture flasks are trypsinized, suspended in medium, and the suspensions are applied to wells of a collagen-coated BioCoat Cell Environment in 24-well format (BD Biosciences) at 24,500 cells per well. The cells are allowed to grow and differentiate for three weeks, feeding at 2-day intervals.
For Apical to Basolateral (A->B) permeability, the test agent is added at 50 μM to the apical (A) side and amount of permeation is determined on the basolateral (B) side; for Basolateral to Apical (B>A) permeability, the test agent is added at 50 μM to the B side and the amount of permeation is determine on the A side. The A-side buffer contains 100 μM Lucifer yellow dye, in Transport Buffer (1.98 g/L glucose in 10 mM HEPES, 1× Hank's Balanced Salt Solution) pH 6.5, and the B-side buffer is Transport Buffer, pH 7.4. CaCo-2 cells are incubated with these buffers for 2 h., and the receiver side buffer is removed for analysis by liquid chromatography-mass spectrometry (LC/MS/MS).
Additionally, several control compounds are tested in the identical assay.
To verify that CaCo-2 cell monolayers are properly formed, aliquots of the cell buffers are analyzed by fluorescence to determine the transport of the impermeable dye Lucifer Yellow.
Data are expressed as permeability (Papp): […]
where dQ/dt is the rate of permeation, C0 is the initial concentration of test agent, and A is the area of the monolayer.
In bidirectional permeability studies, the asymmetry index (AI) or efflux ratio is also calculated:
An AI>1 indicated a potential substrate for PGP or other active transporters.
Samples are analyzed by LC/MS/MS using either an Agilent 6410 mass spectrometer coupled with an Agilent 1200 high performance liquid chromatography (HPLC) and a CTC PAL chilled autosampler, all controlled by MassHunter software (Agilent), or an ABI2000 mass spectrometer coupled with an Agilent 1100 HPLC and a CTC PAL chilled autosampler, all controlled by Analyst software (ABI). After separation on a C18 reverse phase HPLC column (Agilent, Waters, or equivalent) using an acetonitrile-water gradient system, peaks are analyzed by mass spectrometry (MS) using electrospray ionization (ESI) in multiple reaction monitoring (MRM) mode.
The signal is optimized for each compound by ESI positive or negative ionization mode. A MS2 selected ion monitoring (SIM) scan is used to optimize the precursor ion and a product ion analysis is used to identify the best fragment for analysis and to optimize the collision energy.

[2] = test system: SMN positive foci or gems in the nucleus; experiment: Gem count in human type I SMA fibroblasts; type: cell-based; settings: 3 days, FIG. 5; for number of gems versus dose (in words): 37 nM-3000 nM
From the text: Furthermore, the increase in SMN protein production led us to explore whether the arylpiperidine analogues had effect of on the overall number of SMN positive foci or gems in the nucleus. This would corroborate that the increased protein amounts represent indeed functional SMN protein. SMN protein is predominately a cytoplasmic protein in the nucleous SMN which localized to in distinct punctuate bodies often referred to as gems (gemini of coiled [Cajal] bodies). There is a direct correlation between the number of gems and total SMN protein production in the cell. Gem counts are commonly used as another metric to score the amount total SMN protein expressed on a cell-to-cell basis. […] Only 3.3% of nuclei have gems in fibroblast cells from SMA type I patients (cell line 3813), while 24.8% of nuclei have gems in fibroblast from a carrier parent (3814 cell line). We treated human type I SMA fibroblasts with increasing doses (37 nM 3000 nM) of arylpiperidine analogues 8a, 8m, and 9a for 3 days and the number of gems per 100 nuclei were examined (FIG. 5). Analogue 8m treatment yielded more than 2 fold of increase of the number of the gems at low 37 nM dose.

Structure (SMILES): Cc1ccc(-c2cnc(N3CCC(C(N)=O)CC3)s2)cc1 [Example 119, 1-(5-P-Tolylthiazol-2-yl)Piperidine-4-Carboxamide]
- SMN protein level versus dose (in words) (human SMN protein): up-regulation of SMN protein at concentrations ranging between 37 nM and 333 nM
- Curve Class (SMN2-luciferase reporter): 1.1
- Increased SMN2 activity (SMN2-luciferase reporter): 609.4%

Structure (SMILES): O=C(O)C1CCN(c2nc(-c3ccc(Br)cc3)cs2)CC1 [Example 69, 1-(4-(4-Bromophenyl)Thiazol-2-yl)Piperidine-4-Carboxylic Acid]
- Minus NADPH Parent remaining 1st [1]: 90%
- Minus NADPH Parent remaining 2nd [1]: 101%
- Minus NADPH Parent remaining mean [1]: 95%
- Plus NADPH Parent remaining 1st [1]: 76%
- Plus NADPH Parent remaining 2nd [1]: 85%
- Plus NADPH Parent remaining mean [1]: 81%
- Curve Class (SMN2-luciferase reporter): 1.1
- Increased SMN2 activity (SMN2-luciferase reporter): 554.58%

Structure (SMILES): NC(=O)C1CCN(c2nc(-c3ccc4c(c3)OCCO4)cs2)CC1 [Example 48, 1-(4-(2,3-Dihydrobenzo[B][1,4]Dioxin-6-yl)Thiazol-2-yl)Piperidine-4-Carboxamide]
- Minus NADPH Parent remaining 1st [1]: 16%
- Minus NADPH Parent remaining 2nd [1]: 15%
- Minus NADPH Parent remaining mean [1]: 16%
- Plus NADPH Parent remaining 1st [1]: 1%
- Plus NADPH Parent remaining 2nd [1]: 0%
- Plus NADPH Parent remaining mean [1]: 1%
- Curve Class (SMN2-luciferase reporter): 1.1
- Increased SMN2 activity (SMN2-luciferase reporter): 459%

Structure (SMILES): CC(=O)CC(c1ccccc1)c1c(O)c2ccccc2oc1=O (centres unmarked) [Warfarin, reference compound]
- Papp A→B at 2 h, 10 μM (in vitro): 45.8 ×10⁻⁶ cm/s
- Papp B→A at 2 h, 10 μM (in vitro): 11.7 ×10⁻⁶ cm/s

Structure (SMILES): CSc1ccc(-c2cnc(N3CCC(C(N)=O)CC3)s2)cc1 [Example 134, 1-(5-(4-(Methylthio)Phenyl)Thiazol-2-yl)Piperidine-4-Carboxamide]
- increase of the number of the gems ([2]; 37 nM): more than 2 fold
- number of gems versus dose (in words) [2]: With the concentration increased, the numbers of gems was reduced
- increase of SMN protein level (human SMN protein; 37 nanomolar): 2-3 fold
- SMN protein level versus dose (in words) (human SMN protein): decreased with the increasing of the drug concentration
- Curve Class (SMN2-luciferase reporter): 1.1
- Increased SMN2 activity (SMN2-luciferase reporter): 576.1%

Structure (SMILES): O=C(O)C1CCN(c2ncc(-c3ccc4c(c3)OCCCO4)s2)CC1 [Example 148, 1-(5-(3,4-Dihydro-2H-Benzo[B][1,4]Dioxepin-7-yl)Thiazol-2-yl)Piperidine-4-Carboxylic Acid]
- increase of the gem numbers ([2]; 37 nM to 1000 nM): 80%
- number of gems versus dose (in words) [2]: slightly decreased at 3000 nM
- SMN protein level versus dose (in words) (human SMN protein): dose-dependent trend between 37 nM to 1 μM concentration and a decrease of protein level at 3 μM
- Curve Class (SMN2-luciferase reporter): 1.1
- Increased SMN2 activity (SMN2-luciferase reporter): 325.6%

Structure (SMILES): CNC(=C[N+](=O)[O-])NCCSCc1ccc(CN(C)C)o1 [Ranitidine, ranitidine, reference compound]
- Papp A→B at 2 h, 10 μM (in vitro): 0.42 ×10⁻⁶ cm/s

Structure (SMILES): NC(=O)C1CCN(c2nc(-c3ccc(Br)cc3)cs2)CC1 [Example 23, 1-(4-(4-Bromophenyl)Thiazol-2-yl)Piperidine-4-Carboxamide]
- Minus NADPH Parent remaining 1st [1]: 68%
- Minus NADPH Parent remaining 2nd [1]: 51%
- Minus NADPH Parent remaining mean [1]: 59%
- Plus NADPH Parent remaining 1st [1]: 55%
- Plus NADPH Parent remaining 2nd [1]: 43%
- Plus NADPH Parent remaining mean [1]: 49%
- Curve Class (SMN2-luciferase reporter): 1.1
- Increased SMN2 activity (SMN2-luciferase reporter): 267.7%

Structure (SMILES): NC(=O)C1CCN(c2ncc(-c3ccc4c(c3)OCCCO4)s2)CC1 [Example 124, 1-(5-(3,4-Dihydro-2H-Benzo[B][1,4] Dioxepin-7-yl)Thiazol-2-yl)Piperidine-4-Carboxamide]
- number of gems versus dose (in words) [2]: didn't show any activity
- Curve Class (SMN2-luciferase reporter): 1.1
- Increased SMN2 activity (SMN2-luciferase reporter): 370.5%

Structure (SMILES): CN(C)c1cccc(-c2csc(N3CCC(C(N)=O)CC3)n2)c1 [Example 63, 1-(4-(3-(Dimethylamino)Phenyl)Thiazol-2-yl)Piperidine-4-Carboxamide]
- Minus NADPH Parent remaining 1st [1]: 69%
- Minus NADPH Parent remaining 2nd [1]: 66%
- Minus NADPH Parent remaining mean [1]: 67%
- Plus NADPH Parent remaining 1st [1]: 0%
- Plus NADPH Parent remaining 2nd [1]: 0%
- Plus NADPH Parent remaining mean [1]: 0%
- Curve Class (SMN2-luciferase reporter): 1.1
- Increased SMN2 activity (SMN2-luciferase reporter): 504%

Structure (SMILES): O=C(Nc1ccccc1)C1CCN(c2ncc(-c3ccc4c(c3)OCCCO4)s2)CC1 [Example 151, 1-(5-(3,4-Dihydro-2H-Benzo[B][1,4]Dioxepin-7-yl)Thiazol-2-yl)-N-Phenylpiperidine-4-Carboxamide]
- SMN protein level versus dose (in words) (human SMN protein): up-regulation of SMN protein at concentrations ranging between 37 nM and 333 nM
- Curve Class (SMN2-luciferase reporter): 1.1
- Increased SMN2 activity (SMN2-luciferase reporter): 353%

Structure (SMILES): CC(C)Oc1cccc(-c2cnc(N3CCC(C(N)=O)CC3)s2)c1 [Example 123, 1-(5-(3-Isopropoxyphenyl)Thiazol-2-yl)Piperidine-4-Carboxamide]
- SMN protein level versus dose (in words) (human SMN protein): up-regulation of SMN protein at concentrations ranging between 37 nM and 333 nM
- Curve Class (SMN2-luciferase reporter): 1.1
- Increased SMN2 activity (SMN2-luciferase reporter): 709.6%

Structure (SMILES): N#Cc1ccc(-c2csc(N3CCC(C(N)=O)CC3)n2)cc1 [Example 18, 1-(4-(4-Cyanophenyl)Thiazol-2-yl)Piperidine-4-Carboxamide]
- Curve Class (SMN2-luciferase reporter): 2.2
- Increased SMN2 activity (SMN2-luciferase reporter): 48.75%

Structure (SMILES): CN(C)c1cccc(-c2ncc(F)c(N3CCC(C(N)=O)CC3)n2)c1 [Example 152, 1-(2-(3-(Dimethylamino)Phenyl)-5-Fluoropyrimidin-4-yl)Piperidine-4-Carboxamide]
- Curve Class (SMN2-luciferase reporter): 1.1
- Increased SMN2 activity (SMN2-luciferase reporter): 141.8%
